Measurements: US20240360165A1, “INHIBITORS OF CYCLIN DEPENDENT KINASE 7 (CDK7)” (Syros Pharmaceuticals, Inc., priority 2016, published 2024)
Like-named read-outs stand apart in the source and are kept apart here.

What was measured:
[1] = target: CDK7/Cyclin H/MAT1 complex (Homo sapiens, UniProt P50613); test: CDK7 inhibition assay (Caliper/LabChip EZ Reader kinase assay); assay type: biochemical; conditions: Table 1; CDK7/Cyclin H/MAT1 6 nM, ATP 2 mM, 35 min at 27° C.
Method: (§1) Compounds of the invention were assayed for inhibition of CDK7, CDK9, CDK12, and CDK2 activity at Biortus Biosciences (Jiangyin, Jiangsu Province, P.R. of China) using kinase assays for each CDK developed with a Caliper/LabChip EZ Reader (Perkin Elmer, Waltham, MA).
(§2) Furthermore, the CDK9 inhibition assay used CDK9/Cyclin T1 complex (8 nM) and “5-FAM-CDK9tide” peptide substrate (2 μM, synthesized fluorophore-labeled peptide with the following sequence: 5-FAM-GSRTPMY-NH2 where 5-FAM is defined above and NH2 signifies a C-terminal amide) with 10 mM MgCl2 in the buffer composition listed above. […] Additionally, the CDK2 inhibition assay used CDK2/Cyclin E1 complex (0.5 nM) and “5-FAM-CDK7tide” ([…]) as defined above, with 2 mM MgCl2 in the buffer composition listed above.

CDK2/Cyclin E1 complex = CDK2/Cyclin E1 complex (Homo sapiens, UniProt P24941); test: CDK2 inhibition assay (Caliper/LabChip EZ Reader kinase assay); assay type: biochemical; conditions: Table 1; CDK2/Cyclin E1 0.5 nM, ATP 2 mM, 35 min at 27° C.
Method: as §1, §2

A673 cells = test: Inhibition of proliferation of A673 cells (CyQUANT, 72 hour); assay type: cell-based, human; conditions: A673 cells, 72 hour, CyQUANT, read-out: Inhibition of Proliferation of A673 Cells (calculated IC50)
Method: A673 cells are a cell line derived from human […] Ewing's sarcoma. Representative compounds of the invention were tested at different concentrations (from […]; 0.5 log serial dilutions) for their ability to inhibit the proliferation of A673 cells. Known CDK inhibitors dinaciclib or N-((1S,3R)-3-((5-chloro-4-(1H-indol-3-yl)pyrimidin-2-yl)amino)cyclohexyl)-5-((E)-4-(dimethylamino)but-2-enamido)picolinamide and triptolide were used as positive controls. Cells were grown in Dulbecco's Modified Eagle's Medium, +10% FBS+1 mM Sodium Pyruvate. The cells were cultured at 37° C. in a humidified chamber in the presence of 5% CO2. Proliferation assays were conducted over a 72 hour time period. CyQUANT® (Life Technologies, Chicago, IL USA) was used to assess the anti-proliferative effects of the compounds following manufacturer's directions and utilizing the reagents supplied with the CyQUANT® kit.

[2] = target: T1, CDK12 (aa686-1082)/Cyclin K complex (Homo sapiens, UniProt Q9NYV4); test: CDK12 inhibition assay (Caliper/LabChip EZ Reader kinase assay); assay type: biochemical; conditions: Table 1; CDK12 (aa686-1082)/Cyclin K 50 nM, ATP 2 mM, 3 hr at 27° C.
T1 construct: CDK12 (aa686-1082)/Cyclin K complex
Method: as §1, §2

CDK9/Cyclin T1 complex = CDK9/Cyclin T1 complex (Homo sapiens, UniProt P50750); test: CDK9 inhibition assay (Caliper/LabChip EZ Reader kinase assay); assay type: biochemical; conditions: Table 1; CDK9/Cyclin T1 8 nM, ATP 2 mM, 15 min at 27° C.
Method: as §1, §2

T1 sequence (Q9NYV4 686-1082, species assumed): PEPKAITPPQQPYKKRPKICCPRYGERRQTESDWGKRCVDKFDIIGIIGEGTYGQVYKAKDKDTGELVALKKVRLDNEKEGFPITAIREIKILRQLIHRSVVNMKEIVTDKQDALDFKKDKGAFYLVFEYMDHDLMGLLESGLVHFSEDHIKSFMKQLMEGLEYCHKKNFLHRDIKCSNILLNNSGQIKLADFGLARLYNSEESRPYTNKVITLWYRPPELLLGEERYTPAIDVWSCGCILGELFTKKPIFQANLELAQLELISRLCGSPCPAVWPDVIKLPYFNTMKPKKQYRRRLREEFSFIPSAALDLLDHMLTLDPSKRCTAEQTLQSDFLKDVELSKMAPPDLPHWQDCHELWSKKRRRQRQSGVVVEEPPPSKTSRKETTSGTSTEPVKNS
T1 sequence (O75909 whole entry partner, species assumed, the tested form may be a part): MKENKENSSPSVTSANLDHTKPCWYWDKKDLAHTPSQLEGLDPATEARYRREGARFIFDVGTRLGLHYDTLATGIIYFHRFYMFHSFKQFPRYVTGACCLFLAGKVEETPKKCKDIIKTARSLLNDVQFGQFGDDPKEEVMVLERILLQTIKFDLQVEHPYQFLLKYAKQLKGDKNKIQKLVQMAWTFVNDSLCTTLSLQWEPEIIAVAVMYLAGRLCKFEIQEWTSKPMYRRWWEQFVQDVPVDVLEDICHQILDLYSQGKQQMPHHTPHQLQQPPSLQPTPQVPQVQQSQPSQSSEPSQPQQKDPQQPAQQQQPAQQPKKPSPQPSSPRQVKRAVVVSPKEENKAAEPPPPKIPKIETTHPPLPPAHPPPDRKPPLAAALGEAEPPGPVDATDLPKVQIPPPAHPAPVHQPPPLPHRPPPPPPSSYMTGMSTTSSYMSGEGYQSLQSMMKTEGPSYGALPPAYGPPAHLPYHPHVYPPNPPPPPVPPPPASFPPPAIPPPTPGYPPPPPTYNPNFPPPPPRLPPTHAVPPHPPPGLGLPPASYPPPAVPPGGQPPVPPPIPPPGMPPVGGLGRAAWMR
Chain of CDK7/Cyclin H/MAT1 complex (P50613 whole entry, species assumed): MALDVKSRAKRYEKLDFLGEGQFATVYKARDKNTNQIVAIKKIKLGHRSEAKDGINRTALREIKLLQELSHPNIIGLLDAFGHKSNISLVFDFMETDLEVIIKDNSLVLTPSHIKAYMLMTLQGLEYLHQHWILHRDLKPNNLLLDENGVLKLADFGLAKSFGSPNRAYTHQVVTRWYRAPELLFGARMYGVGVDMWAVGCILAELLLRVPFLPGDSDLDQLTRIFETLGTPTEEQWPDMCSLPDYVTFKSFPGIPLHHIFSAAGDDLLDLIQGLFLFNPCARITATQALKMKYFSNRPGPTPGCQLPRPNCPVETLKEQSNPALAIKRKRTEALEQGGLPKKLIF
Chain of CDK7/Cyclin H/MAT1 complex (P51946 whole entry partner, species assumed): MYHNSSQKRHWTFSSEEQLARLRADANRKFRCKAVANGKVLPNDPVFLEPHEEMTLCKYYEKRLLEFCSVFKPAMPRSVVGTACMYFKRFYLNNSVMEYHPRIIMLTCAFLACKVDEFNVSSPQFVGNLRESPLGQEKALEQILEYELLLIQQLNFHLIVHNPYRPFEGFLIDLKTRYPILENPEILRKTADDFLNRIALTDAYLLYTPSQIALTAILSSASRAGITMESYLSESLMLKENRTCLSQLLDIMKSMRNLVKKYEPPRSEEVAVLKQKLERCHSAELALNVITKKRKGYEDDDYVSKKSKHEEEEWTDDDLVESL
Chain of CDK7/Cyclin H/MAT1 complex (P51948 whole entry partner, species assumed): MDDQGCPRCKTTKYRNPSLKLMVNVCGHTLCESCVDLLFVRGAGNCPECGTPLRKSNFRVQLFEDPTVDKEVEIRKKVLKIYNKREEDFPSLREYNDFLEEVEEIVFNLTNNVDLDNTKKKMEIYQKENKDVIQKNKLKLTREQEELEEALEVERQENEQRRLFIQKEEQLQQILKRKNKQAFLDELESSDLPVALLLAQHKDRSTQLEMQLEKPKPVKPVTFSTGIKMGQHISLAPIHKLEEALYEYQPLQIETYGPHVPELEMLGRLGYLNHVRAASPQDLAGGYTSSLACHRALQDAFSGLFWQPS
Chain of CDK9/Cyclin T1 complex (P50750 whole entry, species assumed): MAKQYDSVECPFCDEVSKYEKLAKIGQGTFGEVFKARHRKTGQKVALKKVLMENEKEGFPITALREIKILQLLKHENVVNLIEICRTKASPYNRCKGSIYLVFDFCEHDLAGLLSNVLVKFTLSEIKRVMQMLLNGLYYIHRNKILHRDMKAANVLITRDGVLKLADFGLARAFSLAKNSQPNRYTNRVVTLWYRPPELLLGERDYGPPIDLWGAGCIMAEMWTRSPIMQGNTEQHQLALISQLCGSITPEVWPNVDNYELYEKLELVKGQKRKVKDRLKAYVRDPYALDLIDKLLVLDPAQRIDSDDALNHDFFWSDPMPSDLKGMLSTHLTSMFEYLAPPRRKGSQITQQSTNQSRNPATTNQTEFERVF
Chain of CDK9/Cyclin T1 complex (O60563 whole entry partner, species assumed): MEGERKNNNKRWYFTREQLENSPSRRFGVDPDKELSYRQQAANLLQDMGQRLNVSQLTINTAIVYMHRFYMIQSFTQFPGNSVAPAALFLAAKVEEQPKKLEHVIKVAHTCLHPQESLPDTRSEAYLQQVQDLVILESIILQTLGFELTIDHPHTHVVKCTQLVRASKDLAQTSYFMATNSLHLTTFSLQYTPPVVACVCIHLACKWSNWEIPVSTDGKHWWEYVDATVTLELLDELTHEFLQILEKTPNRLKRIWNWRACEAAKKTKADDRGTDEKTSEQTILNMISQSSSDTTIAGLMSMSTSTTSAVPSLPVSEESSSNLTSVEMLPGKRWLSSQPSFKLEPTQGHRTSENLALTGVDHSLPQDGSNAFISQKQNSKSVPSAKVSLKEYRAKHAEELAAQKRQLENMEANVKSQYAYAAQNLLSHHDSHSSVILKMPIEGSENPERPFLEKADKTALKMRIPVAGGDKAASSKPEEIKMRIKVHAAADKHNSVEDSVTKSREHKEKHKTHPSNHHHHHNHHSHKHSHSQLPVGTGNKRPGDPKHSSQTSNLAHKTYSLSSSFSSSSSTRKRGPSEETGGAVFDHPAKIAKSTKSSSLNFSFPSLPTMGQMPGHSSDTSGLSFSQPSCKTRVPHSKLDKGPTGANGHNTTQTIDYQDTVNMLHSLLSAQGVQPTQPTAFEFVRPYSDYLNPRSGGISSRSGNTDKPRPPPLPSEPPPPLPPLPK

| IC50 [1] | IC50 (CDK2/Cyclin E1 complex) | IC50 [2] | IC50 (CDK9/Cyclin T1 complex) | SMILES | IC50 (A673 cells; Homo sapiens, A673, 72 h) | IC50 (A673 cells) |
| --- | --- | --- | --- | --- | --- | --- |
| < 20 nM | 200 to 5000 nM | 200 to 5000 nM | 200 to 5000 nM | N#Cc1ccc2c(-c3nc(N[C@H]4CCCNC4)ncc3C(F)(F)F)c[nH]c2c1C#N [Compound 258, 3-[2-[[(3S)-3-piperidyl]amino]-5-(trifluoromethyl)pyrimidin-4-yl]-1H-indole-6,7-dicarbonitrile] | 20 to 200 nM |  |
| < 20 nM | 20 to 200 nM | 20 to 200 nM | 200 to 5000 nM | CNC(=O)C1CNCC(Nc2ncc(C(F)(F)F)c(-c3c[nH]c4ccccc34)n2)C1 (single isomer, unassigned) [Compound 253] |  | 20 to 200 nM |
| < 20 nM | 200 to 5000 nM | 200 to 5000 nM | 200 to 5000 nM | Cc1nn(C)cc1-c1ccc2c(-c3nc(N[C@H]4CCCNC4)ncc3C(F)(F)F)c[nH]c2c1 [Compound 226, 4-[6-(1,3-dimethylpyrazol-4-yl)-1H-indol-3-yl]-N-[(3S)-3-piperidyl]-5-(trifluoromethyl) pyrimidin-2-amine] | < 20 nM |  |
| < 20 nM | > 5000 nM | 200 to 5000 nM | > 5000 nM | O=C(c1ccc2c(-c3nc(N[C@H]4CCCNC4)ncc3C(F)(F)F)c[nH]c2c1)N1CC[C@H](O)C1 [Compound 204, [(3S)-3-hydroxypyrrolidin-1-yl]-[3-[2-[[(3S)-3-piperidyl]amino]-5-(trifluoromethyl)pyrimidin-4-yl]-1H-indol-6-yl]methanone] | 200 to 5000 nM |  |
| 200 to 5000 nM | > 5000 nM | > 5000 nM | > 5000 nM | CC(O)c1cnc(N[C@H]2CCCNC2)nc1-c1c[nH]c2ccccc12 (mixture of isomers) [Compound 234] | < 20 nM |  |
| < 20 nM | 200 to 5000 nM | 200 to 5000 nM | 200 to 5000 nM | Cc1c(-c2ccc3c(-c4nc(N[C@H]5CCCNC5)ncc4C(F)(F)F)c[nH]c3c2)cnn1C [Compound 227, 4-[6-(1,5-dimethylpyrazol-4-yl)-1H-indol-3-yl]-N-[(3S)-3-piperidyl]-5-(trifluoromethyl) pyrimidin-2-amine] | 20 to 200 nM |  |
| < 20 nM | 200 to 5000 nM | 200 to 5000 nM | 200 to 5000 nM | O[C@H]1CC[C@@H](c2cccc3c(-c4nc(N[C@H]5CCCNC5)ncc4C(F)(F)F)c[nH]c32)CC1 [Compound 207] | < 20 nM |  |
| < 20 nM | 200 to 5000 nM | 200 to 5000 nM | 200 to 5000 nM | FC(F)(F)c1cnc(N[C@H]2CCCNC2)nc1-c1c[nH]c2cc(-c3ccncc3)ccc12 [Compound 224, N-[(3S)-3-piperidyl]-4-[6-(4-pyridyl)-1H-indol-3-yl]-5-(trifluoromethyl) pyrimidin-2-amine] | 20 to 200 nM |  |
| 20 to 200 nM | > 5000 nM | > 5000 nM | > 5000 nM | CC(C)C1CC[C@H](Nc2ncc(C(F)(F)F)c(-c3c[nH]c4ccccc34)n2)CN1 (mixture of isomers) [Compound 257] | 200 to 5000 nM |  |
| < 20 nM | 200 to 5000 nM | 200 to 5000 nM | > 5000 nM | Cc1nc(-c2ccc3c(-c4nc(N[C@H]5CCCNC5)ncc4C(F)(F)F)c[nH]c3c2)nn1C [Compound 245, 4-[6-(1,5-dimethyl-1,2,4-triazol-3-yl)-1H-indol-3-yl]-N-[(3S)-3-piperidyl]-5-(trifluoromethyl) pyrimidin-2-amine] | 20 to 200 nM |  |
| 200 to 5000 nM | > 5000 nM | > 5000 nM | > 5000 nM | CC(O)c1cnc(NC2CCCNC2)nc1-c1c[nH]c2ccccc12 (single isomer, unassigned) [Compound 239] |  | 200 to 5000 nM |
| < 20 nM | 200 to 5000 nM | 200 to 5000 nM | 200 to 5000 nM | Cn1cc(-c2ccc3c(-c4nc(N[C@H]5CCCNC5)ncc4C(F)(F)F)c[nH]c3c2)cc1C#N [Compound 225, 1-methyl-4-[3-[2-[[(3S)-3-piperidyl]amino]-5-(trifluoromethyl)pyrimidin-4-yl]-1H-indol-6-yl] pyrrole-2-carbonitrile] | 20 to 200 nM |  |
| < 20 nM | 200 to 5000 nM | 200 to 5000 nM | 200 to 5000 nM | N#Cc1cc(-c2ccc3c(-c4nc(N[C@H]5CCCNC5)ncc4C(F)(F)F)c[nH]c3c2)c[nH]1 [Compound 233, 4-[3-[2-[[(3S)-3-piperidyl]amino]-5-(trifluoromethyl)pyrimidin-4-yl]-1H-indol-6-yl]-1H-pyrrole-2-carbonitrile] | 20 to 200 nM |  |
| < 20 nM | 200 to 5000 nM | 200 to 5000 nM | 200 to 5000 nM | CS(=O)(=O)Cc1ccc2c(-c3nc(N[C@H]4CCCNC4)ncc3C(F)(F)F)c[nH]c2c1 [Compound 219, 4-[6-(methylsulfonylmethyl)-1H-indol-3-yl]-N-[(3S)-3-piperidyl]-5-(trifluoromethyl) pyrimidin-2-amine] | 20 to 200 nM |  |

More lines, now with the values behind:

| SMILES | IC50 [1] | IC50 (CDK2/Cyclin E1 complex) | IC50 [2] | IC50 (CDK9/Cyclin T1 complex) | IC50 (A673 cells; Homo sapiens, A673, 72 h) | IC50 (A673 cells) |
| --- | --- | --- | --- | --- | --- | --- |
| FC(F)(F)c1cnc(NC2CNCc3ccccc32)nc1-c1c[nH]c2ccccc12 (stereo not drawn) [Compound 215] | 20 to 200 nM | > 5000 nM | > 5000 nM | > 5000 nM | 200 to 5000 nM |  |
| CCc1cnc(N[C@H]2CCCNC2)nc1-c1c[nH]c2cc(S(C)(=O)=O)ccc12 [Compound 271] | 20 to 200 nM | > 5000 nM | > 5000 nM | > 5000 nM | 200 to 5000 nM |  |
| CCCCCC1CC[C@H](Nc2ncc(C(F)(F)F)c(-c3c[nH]c4ccccc34)n2)CN1 (mixture of isomers) [Compound 241] | 20 to 200 nM | 200 to 5000 nM | 200 to 5000 nM | 200 to 5000 nM | 20 to 200 nM |  |
| FC(F)(F)c1cnc(NC2CNCc3ccccc32)nc1-c1c[nH]c2ccccc12 (stereo not drawn) [Compound 216] | 200 to 5000 nM | 200 to 5000 nM | > 5000 nM | > 5000 nM |  | 200 to 5000 nM |
| CCc1cnc(N[C@H]2CCCNC2)nc1-c1n[nH]c2c(F)cccc12 [Compound 143, (S)-5-ethyl-4-(7-fluoro-1H-indazol-3-yl)-N-(piperidin-3-yl)pyrimidin-2-amine] | < 20 nM | 200 to 5000 nM | 200 to 5000 nM | 200 to 5000 nM | < 20 nM |  |
| COC(C)c1cnc(N[C@H]2CCCNC2)nc1-c1c[nH]c2ccccc12 (stereo partly drawn) [Compound 247] | 200 to 5000 nM | > 5000 nM | > 5000 nM | > 5000 nM | 200 to 5000 nM |  |
| Ic1cnc(N[C@H]2CCCNC2)nc1-c1c[nH]c2ccccc12 [Compound 147] | < 20 nM | 20 to 200 nM | 200 to 5000 nM | 200 to 5000 nM |  | < 20 nM |
| COCCN1CCC[C@H](Nc2ncc(Cl)c(-c3c[nH]c4ccccc34)n2)C1 [Compound 149] | 20 to 200 nM | 200 to 5000 nM | 200 to 5000 nM | 200 to 5000 nM |  | 20 to 200 nM |
| CN1CCC[C@H](Nc2ncc(Cl)c(-c3c[nH]c4ccccc34)n2)C1 [Compound 136] | < 20 nM | 200 to 5000 nM | 200 to 5000 nM | 200 to 5000 nM | 20 to 200 nM |  |
| Clc1cnc(N[C@H]2CN3CCC2CC3)nc1-c1c[nH]c2ccccc12 [Compound 134] | > 5000 nM | > 5000 nM | > 5000 nM | > 5000 nM |  | 200 to 5000 nM |
| O=C([C@H]1CC[C@H](Nc2ncc(C(F)(F)F)c(-c3c[nH]c4ccccc34)n2)CN1)N1CCCC1 [Compound 228] | < 20 nM | 200 to 5000 nM | 200 to 5000 nM | 200 to 5000 nM | 20 to 200 nM |  |
| C=Cc1cnc(N[C@H]2CCCNC2)nc1-c1c[nH]c2ccccc12 [Compound 218] | < 20 nM | 200 to 5000 nM | 200 to 5000 nM | 200 to 5000 nM | 20 to 200 nM |  |
| CC(C)CN1CCC[C@H](Nc2ncc(Cl)c(-c3c[nH]c4ccccc34)n2)C1 [Compound 145] | 20 to 200 nM | > 5000 nM | 200 to 5000 nM | > 5000 nM | 200 to 5000 nM |  |
